T1: Wild Type (SEQ ID NO: 16) (Thermotoga maritima, UniProt Q9WXT2)
T1 construct: made in house; host or cells: E. coli
T1 sequence (Q9WXT2 1-325): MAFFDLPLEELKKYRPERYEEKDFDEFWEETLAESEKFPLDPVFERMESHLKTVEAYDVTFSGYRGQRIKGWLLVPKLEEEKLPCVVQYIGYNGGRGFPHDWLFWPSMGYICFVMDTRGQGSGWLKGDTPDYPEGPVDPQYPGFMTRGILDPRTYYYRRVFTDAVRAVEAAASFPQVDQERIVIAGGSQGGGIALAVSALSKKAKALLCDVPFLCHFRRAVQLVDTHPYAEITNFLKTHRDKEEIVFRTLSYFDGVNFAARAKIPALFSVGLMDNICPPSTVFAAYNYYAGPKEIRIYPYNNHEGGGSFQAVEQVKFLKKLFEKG

B1: EZ-4: C277S-link1-(GK)5, SEQ ID NO: 427 (protein)
chain: MAFFDLPLEELKKYRPERYEEKDFDEFWEETLAESEKFPLDPVFERMESHLKTVEAYDVTFSGYRGQRIKGWLLVPKLEEEKLPCVVQYIGYNGGRGFPHDWLFWPSMGYICFVMDTRGQGSGWLKGDTPDYPEGPVDPQYPGFMTRGILDPRTYYYRRVFTDAVRAVEAAASFPQVDQERIVIAGGSQGGGIALAVSALSKKAKALLCDVPFLCHFRRAVQLVDTHPYAEITNFLKTHRDKEEIVFRTLSYFDGVNFAARAKIPALFSVGLMDNISPPSTVFAAYNYYAGPKEIRIYPYNNHEGGGSFQAVEQVKFLKKLFEKGGPGSGGAGSPGSAGGPGSGKGKGKGKGK

What was measured:
[1] = target: T2, C277T/R296P (SEQ ID NO: 476) (Thermotoga maritima, UniProt Q9WXT2, C277T/R296P); type: biochemical; conditions: 100 mM ester, 60 mM H2O2, 40 ppm enzyme, 95 mM phosphate pH 7.2, 37° C.
T2 construct: made in house; host or cells: E. coli
T2 sequence (Q9WXT2 whole entry C277T/R296P): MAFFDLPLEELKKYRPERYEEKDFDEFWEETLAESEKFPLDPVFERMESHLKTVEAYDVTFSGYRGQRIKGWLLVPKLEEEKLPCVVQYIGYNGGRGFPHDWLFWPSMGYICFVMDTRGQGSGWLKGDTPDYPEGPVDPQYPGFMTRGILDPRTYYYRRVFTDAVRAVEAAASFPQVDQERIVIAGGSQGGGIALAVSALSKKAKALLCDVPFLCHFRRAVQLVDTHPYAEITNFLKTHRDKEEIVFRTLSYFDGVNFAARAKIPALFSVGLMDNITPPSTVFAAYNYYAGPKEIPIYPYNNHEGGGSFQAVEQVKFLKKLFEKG
Experimental: (§1) To test various enzymes against an ester substrate, it was convenient to run up to 4 reactions simultaneously by staggering the beginning of each individual reaction by 0.5-1 min. Each individual reaction was performed in a glass vessel (height: 76 mm; o.d.: 33 mm; i.d.: 24 mm) equipped with a magnetic stirring bar. Four reaction vessels were banded together and kept at constant temperature in a jacketed one-liter, stainless steel, tempering beaker (KGW IsoTherm, # TSS-G 1000W) with circulating water controlled by a Thermo NesLab recirculation bath (Model # RTE-7 Digital One). Buffer (6 mL, 100 mM sodium phosphate buffer, pH 7.2) was added to each reaction vessel and allowed to equilibrate to 37° C. The ester substrate of interest was added to achieve 100 mM concentration. […] To follow the production of peracetic acid, 80 μL samples from each reaction were removed at specific intervals from 1 to 15 minutes. The sample was immediately quenched in a microfuge filter tube (NanoSep 30K VWR cat #82031-354) containing a volume and concentration of phosphoric acid solution that was sufficient to stop the enzymatic reaction (by lowering the pH between 2 and 3) and to dilute the sample for convenient HPLC analyses. The acid-quenched samples were centrifuged for 5 minutes to remove any particulates.

[2] = target: T3, C277T (SEQ ID NO: 437) (Thermotoga maritima, UniProt Q9WXT2, C277T); type: biochemical; conditions: 100 mM ester, 60 mM H2O2, 40 ppm enzyme, 95 mM phosphate pH 7.2, 37° C.
T3 construct: made in house; host or cells: E. coli
T3 sequence (Q9WXT2 whole entry C277T): as the sequence (Q9WXT2 whole entry C277T/R296P) above, with P296R counted along it
Experimental: as §1

[3] = target: T1, Wild Type (SEQ ID NO: 16); experiment: Maximum peracetic acid from ester substrates with wild type perhydrolase (Example 14); type: biochemical; conditions: 100 mM ester, 60 mM H2O2, 40 ppm enzyme, 95 mM phosphate pH 7.2, 37° C.
Experimental: as §1

[4] = target: T4, C277S (SEQ ID NO: 424) (Thermotoga maritima, UniProt Q9WXT2, C277S); type: biochemical; conditions: 100 mM ester, 60 mM H2O2, 40 ppm enzyme, 95 mM phosphate pH 7.2, 37° C.
T4 construct: made in house; host or cells: E. coli
Experimental: as §1

[5] = Two-step bleaching of coffee-tea stained bovine enamel (Example 16)
Experimental: Bovine enamel incisors were prepared as indicated in Example 1. The stained enamel blocks were embedded in a 48 well plate to protect the dentin backside from solution exposure. A solution of 10 μM of each enzyme in 10 mM phosphate buffer, pH 7.2 was prepared and 500 μL of solution was incubated with each enamel substrate for 60 min. The enzyme solution was removed and each well was rinsed three times with an additional 500 μL of buffer. The enamel blocks were placed in a fresh well for the whitening process. A solution with a final concentration of 40 mM triacetin, 100 mM H2O2 in 50 mM phosphate pH 7.2 buffer was freshly prepared and 500 μL of solution was added to each enamel block. Over the course of 1 hr the enamel blocks were removed and a color measurement was obtained and then each was returned to the solution in the well plate. The whiteness index for each sample was monitored.

[6] = Retention of perhydrolase on hydroxyapatite (SDS-PAGE band strength); type: binding; conditions: relative to enzyme input = 1
Experimental: Perhydrolase enzymes listed in Table 6 were assessed for binding to hydroxyapatite. A dispersion of hydroxyapatite nanoparticles (Aldrich 677418) was made at 0.5% solids in 10 mM phosphate buffer at pH 7.2. Enzyme stock solution was added to the hydroxyapatite dispersion to a final concentration of 10 μM and incubated for 30 min in a microcentrifuge tube with gentle agitation. Each sample was centrifuged for 5 min at 10000 rpm. The supernatant was removed and additional buffer was added. The particles were resuspended and transferred to a new tube. The process was repeated two additional times. Samples of the original input of enzyme, the supernatant removed from the particles with each wash step and the final particles were prepared for SDS-PAGE analysis by combining 60 μL of sample, 20 μL of LDS buffer and 8 μL of reducing agent (Nu-PAGE). Samples were heated at 85° C. for 10 min. 25 μL of each sample was loaded on a 4-12% BisTris gel (Invitrogen) and run at 115 volts for 1.5 h. The gel was removed and stained with a 1:1 dilution of Simply Blue stain (Invitrogen) overnight and destained for 4 h in deionized water. The gel was analyzed and detection of enzyme in each fraction was estimated based on the presence of a band. The results of the analysis are provided in Table 7 with an indication of the relative strength of each band in the gel compared to the enzyme input (input=1) to determine the strength of binding between the hydroxyapatite surface and each enzyme.

Row | Molecule | Maximum Peracetic Acid (PAA) (ppm), C277T/R296P (SEQ ID NO: 476) [1] [ppm] | Maximum Peracetic Acid (PAA) (ppm), C277T (SEQ ID NO: 437) [2] [ppm] | Maximum Peracetic Acid (PAA) (ppm), Wild Type (SEQ ID NO: 16) [3] [ppm] | Maximum Peracetic Acid (PAA) (ppm), C277S (SEQ ID NO: 424) [4] [ppm] | further results
1 | CC(=O)Oc1ccc(C(=O)O)cc1 [4-acetoxybenzoic acid] | 485 | 426 | 398 | 604 | 
2 | COCC(C)OC(C)=O (stereo not shown) [Propylene glycol methyl ether acetate] | 181 | 197 | 177 | 173 | 
3 | CC(=O)OCC(O)COC(C)=O [Diacetin] | 1087 | 1132 | 1160 | 1013 | 
4 | CC(=O)OC[C@H]1OC(OC(C)=O)[C@H](OC(C)=O)[C@@H]1OC(C)=O (stereo partly shown) [1,2,3,5-tetra-O-acetyl-ribofuranose] | 3270 | 3472 | 2828 | 3397 | 
5 | CC(=O)OC[C@H]1O[C@@H](OC(C)=O)[C@H](OC(C)=O)[C@@H](OC(C)=O)[C@@H]1OC(C)=O [β-D-glucose pentaacetate] | 1716 | 2531 | 1158 | 2178 | 
6 | CC(=O)OCCOCCOC(C)=O [Diethylene glycol diacetate] | 530 | 653 | 424 | 469 | 
7 | CC(=O)OC[C@H]1OC=C[C@@H](OC(C)=O)[C@@H]1OC(C)=O [Tri-O-acetyl glucal] | 1034 | 1319 | 729 | 1047 | 
8 | CC(=O)OC1OC[C@@H](OC(C)=O)[C@@H](OC(C)=O)[C@H]1OC(C)=O (stereo partly shown) [1,2,3,4-tetra-O-acetyl-ribopyranose] | 3503 | 3361 | 2278 | 3525 | 
9 | CC(=O)OC[C@H]1OC(OC(C)=O)[C@@H](O)[C@@H](OC(C)=O)[C@@H]1OC(C)=O (stereo partly shown) [1,3,4,6-tetra-O-acetyl-mannopyranose] |  | 3436 | 2361 | 3593 | 
10 | B1 |  |  |  |  | Whiteness Index 0 min ([5]; two-step: 10 μM enzyme 60 min, rinsed, then 40 mM triacetin, 100 mM H2O2, pH 7.2, before step 2): −158.9; ΔWI ([5]; two-step, 0 to 60 min): 69.4; Whiteness Index 5 min ([5]; two-step, 5 min in triacetin/H2O2): −143.6; Whiteness Index 15 min ([5]; two-step, 15 min in triacetin/H2O2): −149.5; Whiteness Index 30 min ([5]; two-step, 30 min in triacetin/H2O2): −129.4; Whiteness Index 45 min ([5]; two-step, 45 min in triacetin/H2O2): −106.5; Whiteness Index 60 min ([5]; two-step, 60 min in triacetin/H2O2): −89.5; Unbound (relative band strength) ([6]; 10 μM enzyme, 0.5% hydroxyapatite, pH 7.2): 0.5; HAP Particles (relative band strength) ([6]; enzyme retained on particles after washes): 0.4; Wash1 (relative band strength) [6]: 0.05; Wash2 (relative band strength) [6]: 0.05

Source: patent publication US8663616B2, “Enzymatic peracid generation for use in oral care products” (E I du Pont de Nemours and Company, priority 2010, dated 2014)
